Results on 19 compounds are retold here after patent publication US10787452B2 (Vertex Pharmaceuticals Incorporated, priority 2012, dated 2020).

SMILES strings stand for the structures.

In this test the test system is HCT116 colorectal cancer cells. Nature of the test: Cisplatin sensitization assay (96 h cell viability MTS).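 Also: compound concentration needed to lower the Cisplatin-alone IC50 by a set fold.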 Format: cell-based. Conditions: 96 h MTS, compound plus Cisplatin. The method, boiled down:
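Viability was measured by MTS after 96 h co-exposure of HCT116 colorectal cells to a full-matrix dilution grid of compound and cisplatin (2-fold steps, highest final concentration 10 μM, added together). Plates were kept at 37 °C in 5% CO2, and the MTS reagent was incubated for 1 h before reading.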
As to `COC1(CN(C)C)CCN(c2ccncc2NC(=O)c2c(N)nn3cc(Cl)cnc23)CC1` [I-N-46, 2-amino-6-chloro-N-(4-(4-((dimethylamino)methyl)-4-methoxypiperidin-1-yl)pyridin-3-yl)pyrazolo[1,5-a]pyrimidine-3-carboxamide], the “Cisplatin Sensitization Assay” value is reported as “+++ (Compounds with a Cisplatin sensitization value of <0.02 μM are marked with “+++.”)”. The same measure for `COCC1CN(c2ccncc2NC(=O)c2c(N)nn3cc(Cl)cnc23)CCN1C` (stereo not shown) [I-N-47, 2-amino-6-chloro-N-(4-(3-(methoxymethyl)-4-methylpiperazin-1-yl)pyridin-3-yl)pyrazolo[1,5-a]pyrimidine-3-carboxamide]: “++ (Compounds with a Cisplatin sensitization value >0.02 μM but <0.2 μM are marked with “++.”)”; for `Nc1nn2cc(Cl)cnc2c1C(=O)Nc1cnccc1N1CCN(C2CCC2)CC1` [I-N-48, 2-amino-6-chloro-N-(4-(4-cyclobutylpiperazin-1-yl)pyridin-3-yl)pyrazolo[1,5-a]pyrimidine-3-carboxamide]: “++ (Compounds with a Cisplatin sensitization value >0.02 μM but <0.2 μM are marked with “++.”)”.

In the case of `CN(C)CCN1CCN(c2ccncc2NC(=O)c2c(N)nn3cc(Cl)cnc23)CC1` [I-N-49, 2-amino-6-chloro-N-(4-(4-(2-(dimethylamino)ethyl)piperazin-1-yl)pyridin-3-yl)pyrazolo[1,5-a]pyrimidine-3-carboxamide], the “Cisplatin Sensitization Assay” value was “+++ (Compounds with a Cisplatin sensitization value of <0.02 μM are marked with “+++.”)”. As for `CN1CCN(c2cc(N)ncc2NC(=O)c2c(N)nn3cc(Cl)cnc23)CC1` [I-N-50, 2-amino-N-(6-amino-4-(4-methylpiperazin-1-yl)pyridin-3-yl)-6-chloropyrazolo[1,5-a]pyrimidine-3-carboxamide], the entry is “+ (Compounds with a Cisplatin sensitization value >0.2 μM but <5 μM are marked with “+.”)”; as for `CN1CCN(c2cc(Cl)ncc2NC(=O)c2c(N)nn3cc(Cl)cnc23)CC1` [I-N-52, 2-amino-6-chloro-N-(6-chloro-4-(4-methylpiperazin-1-yl)pyridin-3-yl)pyrazolo[1,5-a]pyrimidine-3-carboxamide], “++ (Compounds with a Cisplatin sensitization value >0.02 μM but <0.2 μM are marked with “++.”)”; as for `CN1CCN(c2ccncc2NC(=O)c2c(N)nn3cc(Cl)cnc23)CC1(C)C` [I-N-53, 2-amino-6-chloro-N-(4-(3,3,4-trimethylpiperazin-1-yl)pyridin-3-yl)pyrazolo[1,5-a]pyrimidine-3-carboxamide], “++ (Compounds with a Cisplatin sensitization value >0.02 μM but <0.2 μM are marked with “++.”)”.

With `CC1CN(c2ccncc2NC(=O)c2c(N)nn3cc(Cl)cnc23)CCN1C` (stereo not shown) [I-N-54, 2-amino-6-chloro-N-(4-(3,4-dimethylpiperazin-1-yl)pyridin-3-yl)pyrazolo[1,5-a]pyrimidine-3-carboxamide], the “Cisplatin Sensitization Assay” value is “+++ (Compounds with a Cisplatin sensitization value of <0.02 μM are marked with “+++.”)”. The same measure for `Nc1nn2cc(Cl)cnc2c1C(=O)Nc1cnccc1N1CCCC(N)C1` (stereo not shown) [I-N-55, 2-amino-N-(4-(3-aminopiperidin-1-yl)pyridin-3-yl)-6-chloropyrazolo[1,5-a]pyrimidine-3-carboxamide]: “++ (Compounds with a Cisplatin sensitization value >0.02 μM but <0.2 μM are marked with “++.”)”; for `Nc1nn2cc(Cl)cnc2c1C(=O)Nc1cnccc1N1CCN2CCC1CC2` [I-N-56, N-(4-(1,4-diazabicyclo[3.2.2]nonan-4-yl)pyridin-3-yl)-2-amino-6-chloropyrazolo[1,5-a]pyrimidine-3-carboxamide]: “++ (Compounds with a Cisplatin sensitization value >0.02 μM but <0.2 μM are marked with “++.”)”. As to `Cc1cncc(NC(=O)c2c(N)nn3cc(Cl)cnc23)c1N1CCN(C)CC1` [I-N-57, 2-amino-6-chloro-N-(5-methyl-4-(4-methylpiperazin-1-yl)pyridin-3-yl)pyrazolo[1,5-a]pyrimidine-3-carboxamide], the “Cisplatin Sensitization Assay” value is on record as “+++ (Compounds with a Cisplatin sensitization value of <0.02 μM are marked with “+++.”)”. The same measure for `Nc1nn2cc(Cl)cnc2c1C(=O)Nc1cnccc1N1CCN(C2COC2)CC1` [I-N-58, 2-amino-6-chloro-N-(4-(4-(oxetan-3-yl)piperazin-1-yl)pyridin-3-yl)pyrazolo[1,5-a]pyrimidine-3-carboxamide]: “++ (Compounds with a Cisplatin sensitization value >0.02 μM but <0.2 μM are marked with “++.”)”. The same measure for `CN1CCN(c2ccncc2NC(=O)c2c(N)nn3cc(Cl)cnc23)CC1` [I-N-59, 2-amino-6-chloro-N-(4-(4-methylpiperazin-1-yl)pyridin-3-yl)pyrazolo[1,5-a]pyrimidine-3-carboxamide]: “++ (Compounds with a Cisplatin sensitization value >0.02 μM but <0.2 μM are marked with “++.”)”; for `COCCN1CCN(c2ccncc2NC(=O)c2c(N)nn3cc(Cl)cnc23)CC1` [I-N-60, 2-amino-6-chloro-N-(4-(4-(2-methoxyethyl)piperazin-1-yl)pyridin-3-yl)pyrazolo[1,5-a]pyrimidine-3-carboxamide]: “+++ (Compounds with a Cisplatin sensitization value of <0.02 μM are marked with “+++.”)”; for `CN1CCN2CCN(c3ccncc3NC(=O)c3c(N)nn4cc(Cl)cnc34)CC2C1` (stereo not shown) [I-N-61, 2-amino-6-chloro-N-(4-(8-methylhexahydro-1H-pyrazino[1,2-a]pyrazin-2(6H)-yl)pyridin-3-yl)pyrazolo[1,5-a]pyrimidine-3-carboxamide]: “+++ (Compounds with a Cisplatin sensitization value of <0.02 μM are marked with “+++.”)”.

Regarding `CC1(N2CCN(c3ccncc3NC(=O)c3c(N)nn4cc(F)cnc34)CC2)COC1` [I-N-62, 2-amino-6-fluoro-N-(4-(4-(3-methyloxetan-3-yl)piperazin-1-yl)pyridin-3-yl)pyrazolo[1,5-a]pyrimidine-3-carboxamide], the “Cisplatin Sensitization Assay” value was “++ (Compounds with a Cisplatin sensitization value >0.02 μM but <0.2 μM are marked with “++.”)”. On to `CN1CCN(c2ccncc2NC(=O)c2c(N)nn3cc(Cl)cnc23)CC1CO` (stereo not shown) [I-N-63, 2-amino-6-chloro-N-(4-(3-(hydroxymethyl)-4-methylpiperazin-1-yl)pyridin-3-yl)pyrazolo[1,5-a]pyrimidine-3-carboxamide], for which the “Cisplatin Sensitization Assay” value is recorded as “++ (Compounds with a Cisplatin sensitization value >0.02 μM but <0.2 μM are marked with “++.”)”. As for `Nc1nn2cc(Cl)cnc2c1C(=O)Nc1cnccc1N1CCN(C2CC2)CC1` [I-N-64, 2-amino-6-chloro-N-(4-(4-cyclopropylpiperazin-1-yl)pyridin-3-yl)pyrazolo[1,5-a]pyrimidine-3-carboxamide], the entry is “+++ (Compounds with a Cisplatin sensitization value of <0.02 μM are marked with “+++.”)”; as for `Nc1nn2cc(Cl)cnc2c1C(=O)Nc1cnccc1N1CCN2CCC[C@@H]2C1` [I-N-65, (R)-2-amino-6-chloro-N-(4-(hexahydropyrrolo[1,2-a]pyrazin-2(1H)-yl)pyridin-3-yl)pyrazolo[1,5-a]pyrimidine-3-carboxamide], “+ (Compounds with a Cisplatin sensitization value >0.2 μM but <5 μM are marked with “+.”)”.
